Test system: CYP3A
Conditions: 5 μM inhibitor; liver microsomes of RIF-pretreated TgCYP3A4/hPXR mice; 50 μM MDZ

## CC(=O)N1CCN(c2ccc(OCC3COC(Cn4ccnc4)(c4ccc(Cl)cc4Cl)O3)cc2)CC1 (stereo not shown) [ketoconazole]
  Inhibition of CYP3A activity: markedly inhibited

Reference: publication PMC2678901 (Drug metabolism and disposition: the biological fate of …, 2008)
